Results: US12708601B2, “Mangosteen pericarp extract and process for its preparation thereof” (JUNHONG BIOTECHNOLOGY CO., LTD., priority 2020, dated 2026)

System: B16F10 melanoma cells
Assay: Cell viability assay (MTT) in B16F10 cells treated with α-MSH with or without aqua choice
Type: cell-based, mouse
Conditions: 100 nM, 24 hours of incubation
Experimental: The mouse B16F10 melanoma cells were purchased from Bioresource Collection and Research Center (BCRC, Hsinchu, Taiwan) and cultured using Dulbecco's Modified Eagle Medium (DMEM, Gibco, MA, USA) supplemented with 10% fetal bovine serum and 1% antibiotics (100 units/mL penicillin, […], 0.25 μg/mL amphotericin) in a humidified atmosphere of 5% CO2 at 37° C. The control group was untreated with alpha-melanocyte-stimulating hormone (α-MSH) and aquachoice; The different treatment groups were all treated with α-MSH and different doses aquachoice.
Cells were seeded at a density of […] in 96-well plate for 24 h and then treated with aqua choice at different concentrations for 24 and 48 h. At the end of the treatment, the medium was removed and 100 μL 3-(4,5-Dimethylthiazol-2-yl)-2,5-Diphenyltetrazolium bromide (MTT) solution (Sigma-Aldrich, USA) was treated. MTT reagent was cleanly removed after incubation in a 37° C. incubator for 3 hours, and then 100 μL of DMSO per well was added to dissolve all of the formazan generated in the wells. The result was measured by absorbance at 570 nm with an ELISA reader.

alpha-melanocyte-stimulating hormone [α-MSH]
increase in cell viability: ~ 1.55 fold
